Results published in the supplement of paper PMC4862054.

Key:
Conditions in all cases: incubation time: 72 h
MDA-MB-436 [1] = test: drug sensitivity score (DSS), CellTiter-Glo (DSS (AUC-based score)); higher = stronger drug effect (viability inhibition or cytotoxicity); extreme values may be limits of the assay
Outline: (§1)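 Each compound occupied 5 concentrations in 10-fold steps over its own 10,000-fold range in 384-well plates, into which breast cancer cell lines were seeded as 20 µl suspension. Following 72 h of incubation, CellTox Green fluorescence (485/520 nm) was measured, and CellTiter-Glo luminescence was measured after 10 min at room temperature. Plates were individually normalised to 0.1 % DMSO and a positive kill control. From the area under the fitted dose-response curve, a drug sensitivity score was calculated.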

CAL-148 [2] = test: as above
Outline: as §1

MCF-10A = test: as above
Outline: as §1

HCC1143 [3] = test: as above
Outline: as §1

HCC1599 [4] = test: as above
Outline: as §1

CAL-51 [5] = test: as above
Outline: as §1

BT-549 [6] = test: as above
Outline: as §1

CAL-85-1 [7] = test: as above
Outline: as §1

MDA-MB-436 [8] = test: normalised viability (% of control), CellTiter-Blue; higher = more viable cells (about 100 = DMSO control)
Outline: (§2)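 After 72 h on compound-loaded 384-well plates, breast cancer cell lines received 2.5 µl CellTiter-Blue reagent for 2 h at 37 °C. Fluorescence at 560/590 nm was scaled per plate so that vehicle was 100 and a positive kill control was 0. The value stands for normalised viability at a single listed concentration of the series.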

HDQ-P1 = test: as above
Outline: as §2

SK-BR-3 = test: as above
Outline: as §2

MDA-MB-468 = test: as above
Outline: as §2

CAL-148 [9] = test: as above
Outline: as §2

MDA-MB-231 = test: as above
Outline: as §2

MDA-MB-453 = test: as above
Outline: as §2

HCC1143 [10] = test: as above
Outline: as §2

HCC1599 [11] = test: as above
Outline: as §2

MFM-223 = test: as above
Outline: as §2

CAL-51 [12] = test: as above
Outline: as §2

CAL-120 = test: as above
Outline: as §2

Hs578T = test: as above
Outline: as §2

BT-549 [13] = test: as above
Outline: as §2

BT-474 = test: as above
Outline: as §2

CAL-85-1 [14] = test: as above
Outline: as §2

CN(C)c1nc(N(C)C)nc(N(C)C)n1 [Altretamine]
Conditions	drug sensitivity score
BT-549 [6]	0
CAL-51 [5]	0
CAL-85-1 [7]	0
CAL-148 [2]	0
HCC1143 [3]	0
HCC1599 [4]	0
MCF-10A	0
MDA-MB-436 [1]	0

normalised viability [%]
Conditions	3 nM	10 nM	30 nM	100 nM	1000 nM	10000 nM
BT-474	–	117	–	–	134	138
BT-549 [13]	–	89.3	–	–	78.4	93.4
CAL-51 [12]	113	–	108	105	–	–
CAL-85-1 [14]	105	–	91.5	119	–	–
CAL-120	–	88.6	–	–	98.5	105
CAL-148 [9]	99.5	–	96.7	104	–	–
HCC1143 [10]	–	74.7	–	–	88.4	91.2
HCC1599 [11]	–	95.7	–	–	98.2	73.5
HDQ-P1	107	–	92.7	112	–	–
Hs578T	–	107	–	–	96.9	102
MDA-MB-231	–	99.7	–	–	90.9	106
MDA-MB-436 [8]	–	102	–	–	99.5	85.5
MDA-MB-453	119	–	99.5	97.4	–	–
MDA-MB-468	–	94.5	–	–	104	103
MFM-223	–	96.2	–	–	98	89.6
SK-BR-3	–	106	–	–	113	100

O=C(/C=C/c1cccc(S(=O)(=O)Nc2ccccc2)c1)NO [Belinostat]
Conditions	drug sensitivity score
BT-549 [6]	9.61
CAL-51 [5]	18.6
CAL-85-1 [7]	12.6
CAL-148 [2]	16.1
HCC1143 [3]	11.6
HCC1599 [4]	12.1
MCF-10A	10.8
MDA-MB-436 [1]	10.5

normalised viability [%]
Conditions	3 nM	10 nM	30 nM	100 nM	1000 nM	10000 nM
BT-474	–	106	–	–	47.5	2.17
BT-549 [13]	–	108	–	–	67.8	13.1
CAL-51 [12]	101	–	103	115	–	–
CAL-85-1 [14]	95.7	–	79.5	86.8	–	–
CAL-120	–	87.7	–	–	20.5	3.33
CAL-148 [9]	90.7	–	97.2	81.7	–	–
HCC1143 [10]	–	99.4	–	–	54	12.9
HCC1599 [11]	–	90	–	–	33.2	15.4
HDQ-P1	90.4	–	90.8	72.5	–	–
Hs578T	–	114	–	–	74.7	7.02
MDA-MB-231	–	96.1	–	–	40.7	7.79
MDA-MB-436 [8]	–	116	–	–	38.8	17.4
MDA-MB-453	90.7	–	82.5	64.6	–	–
MDA-MB-468	–	112	–	–	66.9	16.3
MFM-223	–	87.8	–	–	37.2	11.1
SK-BR-3	–	86.9	–	–	21.6	3.92

O=P1(N(CCCl)CCCl)NCCCO1 (centres undefined) [Cyclophosphamide]
Conditions	drug sensitivity score
BT-549 [6]	0
CAL-51 [5]	0
CAL-85-1 [7]	0
CAL-148 [2]	0
HCC1143 [3]	0
HCC1599 [4]	0
MCF-10A	0
MDA-MB-436 [1]	0

normalised viability [%]
Conditions	12 nM	40 nM	120 nM	400 nM	4000 nM	40000 nM
BT-474	–	121	–	–	119	127
BT-549 [13]	–	94.3	–	–	94.9	95.2
CAL-51 [12]	111	–	99	111	–	–
CAL-85-1 [14]	98.8	–	89.9	97.5	–	–
CAL-120	–	97.1	–	–	95.7	83.8
CAL-148 [9]	100	–	102	109	–	–
HCC1143 [10]	–	84.1	–	–	93.6	87.3
HCC1599 [11]	–	89.4	–	–	78	91.5
HDQ-P1	119	–	109	104	–	–
Hs578T	–	107	–	–	108	112
MDA-MB-231	–	101	–	–	96.9	96.9
MDA-MB-436 [8]	–	108	–	–	83.7	83.9
MDA-MB-453	105	–	105	111	–	–
MDA-MB-468	–	102	–	–	100	106
MFM-223	–	92.1	–	–	98.9	98.5
SK-BR-3	–	105	–	–	102	110

C=C1C[C@@H]2[C@H](CC[C@]3(C)C(=O)CC[C@@H]23)[C@@]2(C)C=CC(=O)C=C12 [Exemestane]
Conditions	drug sensitivity score
BT-549 [6]	0
CAL-51 [5]	0
CAL-85-1 [7]	0
CAL-148 [2]	0
HCC1143 [3]	0
HCC1599 [4]	0
MCF-10A	0
MDA-MB-436 [1]	0

normalised viability [%]
Conditions	3 nM	10 nM	30 nM	100 nM	1000 nM	10000 nM
BT-474	–	111	–	–	93.7	103
BT-549 [13]	–	83.5	–	–	108	85.9
CAL-51 [12]	101	–	95.8	86.5	–	–
CAL-85-1 [14]	90.6	–	81.8	89.8	–	–
CAL-120	–	96.1	–	–	92.7	84
CAL-148 [9]	95.1	–	88.7	87	–	–
HCC1143 [10]	–	88.7	–	–	97.8	82.8
HCC1599 [11]	–	81.7	–	–	86.6	77
HDQ-P1	94.5	–	98.5	97.1	–	–
Hs578T	–	112	–	–	110	100
MDA-MB-231	–	101	–	–	98.1	124
MDA-MB-436 [8]	–	112	–	–	87.4	96.2
MDA-MB-453	103	–	87.3	97.8	–	–
MDA-MB-468	–	109	–	–	112	96.5
MFM-223	–	90.6	–	–	101	108
SK-BR-3	–	85.2	–	–	101	79.3
